Values quoted from earlier work, collected in patent publication EP3738589B1, “A COMPOSITION FOR THE PREVENTION AND/OR TREATMENT OF OROPHARYNGEAL MUCOSA DISEASES” (Neilos S.r.l., priority 2019, dated 2020).

What was measured:
oral mucositis = conditions: patients with cancer
[1] = test system: patients suffering from BPCO; conditions: patients suffering from BPCO treated with NAC; from 1.71 times a year
[2] = test system: oral mucositis caused by chemotherapy; conditions: hematopoietic SCT

For `O=C1O[C@H]([C@@H](O)CO)C(O)=C1O` [vitamin C, ascorbic acid], the “severity of oral mucositis” value (oral mucositis) is given as “alleviates the severity of oral mucositis”.
For `CC(=O)N[C@@H](CS)C(=O)O` [NAC, N-acetyl-L-cysteine], the reduction in exacerbations [1] is listed as 0.96 times a year, the “days of discomfort are reduced by” value (BPCO; BPCO) is listed as 0.56 days/month and the “exacerbations of the disease are reduced by” value (BPCO; BPCO) is listed as 0.07 exacerbation/month. The “reduce hospitalizations due to BPCO by” value (BPCO; BPCO) was 30%, the “increase in FEV1” value (BPCO; from 25%, after a short 4-week-therapy) was 30% and the “incidence and grade of oral mucositis” value [2] was “reduces the incidence and grade of oral mucositis”.
